Assay results: patent EP2522332A1, “Use of resveratrol and magnesium-ascorbyl-phosphate” (DSM IP Assets B.V., priority 2011, dated 2012)
Read-outs that look alike come from different tables or passages of the source.

Test system: SILV
Assay: Assessment of gene modulation in normal human epidermal melanocytes (NHEM), RT-qPCR / PCR array
Format: cell-based
Details: for activation at 1000 µg/mL: Homo sapiens, Melanocyte
Experimental: Normal human epidermal melanocytes were cultivated for 24 hours. […] Cells were cultivated for additional 72 hours. All experimental conditions were performed in triplicate.
At the end of the cultivation, the cells were harvested and washed with phosphate buffered saline (PBS) solution and immediately frozen at -80°C. The expression of selected markers was analyzed using RT-qPCR method on mRNA extracted from cells layer for each treatment condition. The differential expression analysis was performed by PCR arrays of the screening format "mQPA H-Melanocyte-64", which focuses on 64 genes selected for their importance in pigmentation and melanocyte biology.
Total RNA was extracted from each sample using TRI-Reagent®. The amount and quality of the RNA was evaluated using a lab-on-a-chip Bioanalyzer (Agilent technologies). Potential contaminants traces of DNA were removed […] The incorporation of fluorescence in amplified DNA was measured continuously during the PCR cycles. […] The value selected for RE calculations is the "output point" (Ct) of the fluorescence curve. For a given marker, the highest is the cycle number; the lowest, is the mRNA quantity. The RE value is expressed in arbitrary units (AU) according to the equation: (((1)/(2)))^NC x 10^6 [formula]
Where NC is the number of cycles.

| SMILES | modulation of the gene SILV (NHEM cells, resveratrol alone 5 micrograms/ml, 72 hours) | activation at 1000 µg/mL (NHEM cells treated 72 hours, resveratrol 5 µg/ml, magnesium-ascorbyl-phosphate 1 mg/ml, combination 5 µg/ml + 1 mg/ml, versus control, read-out: SILV (expression level of the gene SILV)) [%] | activation at 1000 µg/mL (NHEM cells, magnesium ascorbyl phosphate 1 mg/ml, 72 hours, read-out: induction of the SILV gene) [%] |
| --- | --- | --- | --- |
| Oc1ccc(C=Cc2cc(O)cc(O)c2)cc1 [Resveratrol, 3,4',5 trihydroxystilbene] | did not modulate |  |  |
| O=C1O[C@H]([C@@H](O)CO)C(O)=C1OP(=O)(O)O [magnesium-ascorbyl-phosphate, magnesium-L-ascorbyl-2-phosphate] |  | 25 | 25 |
